From patent US20220041647A1, “ESTRA-1,3,5(10)-TRIENE COMPOUNDS CONDENSED IN POSITION 16(17) WITH A PYRAZOLE RING AS INHIBITORS OF 17-HSD1” (FORENDO PHARMA LTD, priority 2018, published 2022) come the findings set out here.

Data set [1] has as its target T1, recombinant human 17β-HSD1 (Homo sapiens, UniProt P14061).
T1 construct: made in house; host or cells: Sd9 (Sf9) insect cells, baculovirus (Bac to Bac Expression System)
T1 sequence (P14061 1-328): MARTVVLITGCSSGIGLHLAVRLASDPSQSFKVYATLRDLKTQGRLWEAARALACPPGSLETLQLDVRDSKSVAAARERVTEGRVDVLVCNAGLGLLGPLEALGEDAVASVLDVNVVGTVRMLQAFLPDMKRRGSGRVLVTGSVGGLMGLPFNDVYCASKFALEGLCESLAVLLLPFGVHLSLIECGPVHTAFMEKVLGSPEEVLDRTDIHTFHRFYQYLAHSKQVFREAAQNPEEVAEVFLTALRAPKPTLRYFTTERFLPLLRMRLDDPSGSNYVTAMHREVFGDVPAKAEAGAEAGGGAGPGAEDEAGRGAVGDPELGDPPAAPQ
Briefly: Inhibition of recombinant human 17β-HSD1 (estrone to estradiol conversion, HPLC/radioactivity). The following applies: compound 100 nM; 30 nM estrone, 1 mM NADPH, 30 min RT. Type of data set: biochemical. Summed up: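 Microsomal human 17β-HSD1 from Sf9 baculovirus (1 μg/ml) was incubated 30 min at RT in 20 mM KH2PO4 pH 7.4 with 30 nM ^3H-estrone, 1 mM NADPH and inhibitor at 1 μM or 0.1 μM (1% DMSO). Estrone and estradiol were separated by HPLC with radioactivity detection. % inhibition = 100 − % conversion relative to uninhibited control.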

A short description of data set [2]: Metabolic stability assay, human hepatocyte incubations. Type of data set: in vitro ADME. The following applies: compound 1 μM, human hepatocytes, 0-60 min at 37° C.; read-out: Human hepatocytes MetStab T½ min. How it is done: Compound stock solutions of the invention were prepared in […]. Final concentration of DMSO was adjusted to 1% in all samples. The in vitro metabolic stability of the compounds of the invention was determined for exemplified compounds using human hepatocyte incubations; study compounds at concentration of 1 μM were incubated 0, 10, 20, 40 and 60 min at 37° C. Samples were collected at all time points and compounds were detected by LC-MS/MS analysis. The percent compound remaining is calculated by comparing the peak area of the parent compound at each time point to time zero. In vitro metabolic stability was determined as half life (T1/2), which was determined by regression analysis of the percent parent disappearance vs. time curve.

In data set [3] the target is T2, recombinant human 17β-HSD2 (Homo sapiens, UniProt P37059).
T2 construct: made in house; host or cells: Sd9 (Sf9) insect cells, baculovirus (Bac to Bac Expression System)
T2 sequence (P37059 1-387): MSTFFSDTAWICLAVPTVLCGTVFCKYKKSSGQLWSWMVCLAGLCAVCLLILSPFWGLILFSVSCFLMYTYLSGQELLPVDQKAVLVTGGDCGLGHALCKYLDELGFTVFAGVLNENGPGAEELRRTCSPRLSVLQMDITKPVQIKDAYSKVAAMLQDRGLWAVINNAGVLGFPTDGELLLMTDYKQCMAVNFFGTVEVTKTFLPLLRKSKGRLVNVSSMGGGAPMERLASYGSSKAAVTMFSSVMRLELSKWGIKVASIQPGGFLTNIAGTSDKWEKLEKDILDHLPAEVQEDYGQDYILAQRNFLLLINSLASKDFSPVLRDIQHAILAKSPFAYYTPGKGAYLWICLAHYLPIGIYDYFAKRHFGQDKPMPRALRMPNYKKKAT
Briefly: Inhibition of recombinant human 17β-HSD2 (estradiol to estrone conversion, HPLC/radioactivity). Type of data set: biochemical. The following applies: compound 1 μM; 50 nM estradiol, 1 mM NADH, 30 min RT. A digest of the protocol: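 Membrane extract of Sf9 cells expressing recombinant human 17β-HSD2 (4 μg/ml), in 20 mM KH2PO4 pH 8.5 with 50 nM ^3H-spiked estradiol and 1 mM NADH, 30 min at RT, 1% DMSO. Compound at 1 μM or 0.1 μM; estrone formation by HPLC radioactivity, % inhibition relative to uninhibited conversion.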

In general, inhibition refers to how much of the control response was suppressed. For the molecule `C[C@]12CCC3c4cccc(F)c4CCC3C1[C@H](CCC(=O)NC1CCOCC1)c1c[nH]nc12` (stereo partly drawn) [Compound 45, 3-((8aS,12S)-3-fluoro-8a-methyl-1,2,6b,7,8,8a,10,12,12a,12b-decahydronaphtho[2′,1′:4,5]indeno[1,2-c]pyrazol-12-yl)-N-(tetrahydro-2H-pyran-4-yl)propanamide], in data set [1], the inhibition at 0.1 µM was 90%. Besides, the half-life at 1 μM in data set [2] is 35 min. The inhibition at 1 µM in data set [3] was determined as 3%.

As to `C[C@]12CCC3c4ccccc4CCC3C1[C@H](CCC(=O)N1CCCC1)c1c[nH]nc12` (stereo partly drawn) [Compound 147, 3-((8aS,12S)-8a-methyl-1,2,6b,7,8,8a,10,12,12a,12b-decahydronaphtho[2′,1′:4,5]indeno[1,2-c]pyrazol-12-yl)-1-(pyrrolidin-1-yl)propan-1-one], the inhibition at 0.1 µM in data set [1] was 86%. For the same molecule, the half-life at 1 μM in data set [2] is 9 min. For the same molecule, the inhibition at 1 µM in data set [3] is 11%.

For the molecule `CC(C)(C)NC(=O)CC[C@@H]1c2c[nH]nc2[C@@]2(C)CCC3c4ccccc4CCC3C12` (stereo partly drawn) [Compound 201, N-(tert-butyl)-3-((8aS,12S)-8a-methyl-1,2,6b,7,8,8a,10,12,12a,12b-decahydronaphtho[2′,1′:4,5]indeno[1,2-c]pyrazol-12-yl)propanamide], the inhibition at 0.1 µM in data set [1] came to 87%. For the same molecule, the half-life at 1 μM in data set [2] amounted to 13 min. Moreover, the inhibition at 1 µM in data set [3] is 4%.

`C[C@]12CCC3c4cccc(F)c4CCC3C1[C@H](CCC(=O)N1CCOCC1)c1c[nH]nc12` (stereo partly drawn) [Compound 234, 3-((8aS,12S)-3-fluoro-8a-methyl-1,2,6b,7,8,8a,10,12,12a,12b-decahydronaphtho[2′,1′:4,5]indeno[1,2-c]pyrazol-12-yl)-1-morpholinopropan-1-one]: the inhibition at 0.1 µM in data set [1] turned out to be 85%. Moreover, the half-life at 1 μM in data set [2] was 26 min. Further, in data set [3], the inhibition at 1 µM amounted to 0%.

With `CN(CC(C)(C)O)C(=O)CC[C@@H]1c2c[nH]nc2[C@@]2(C)CCC3c4cccc(F)c4CCC3C12` (stereo partly drawn) [Compound 243, 3-((8aS,12S)-3-fluoro-8a-methyl-1,2,6b,7,8,8a,10,12,12a,12b-decahydronaphtho[2′,1′:4,5]indeno[1,2-c]pyrazol-12-yl)-N-(2-hydroxy-2-methylpropyl)-N-methylpropanamide], the inhibition at 0.1 µM in data set [1] was 80%. Moreover, in data set [2], the half-life at 1 μM amounted to 15 min. Moreover, in data set [3], the inhibition at 1 µM amounted to 5%.
